ChEMBL document CHEMBL5154643, “Design of a "Two-in-One" Mutant-Selective Epidermal Growth Factor Receptor Inhibitor That Spans the Orthosteric and Allosteric Sites” (J Med Chem, 2022)

Assay: Apparent permeability across apical to basolateral side in human Caco-2 cells monolayer
Format: ADME, cell-based

Papp | Compound
Impermeable | CSc1nc(-c2cccc(NC(=O)c3c(F)ccc(O)c3CN3C(=O)c4ccccc4C3=O)c2)c(-c2ccnc(NC(C)=O)c2)[nH]1
Impermeable | C=CC(=O)Nc1ccc(OC)c(Nc2cc(-c3[nH]c(SC)nc3-c3cccc(NC(=O)c4c(F)ccc(O)c4CN4C(=O)c5ccccc5C4=O)c3)ccn2)c1
